This note sets out measurements from the supplement of paper PMC3974653.

Where a name gives a salt, the structure may show the parent alone.

For this assay, the system named is MTT (mouse pheochromocytoma). Description: IC50 of cell viability (ATP content). The note with it: (24 or 48 h). A digest of the protocol:
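MTT mouse pheochromocytoma cells in white 1536-well plates were treated for 24 or 48 hrs with library compounds at 8 final concentrations from 0.5 nM to 46 µM. ATP content was measured with CellTiter-Glo luminescence, using positive-control wells as 100% and DMSO wells as 0%. IC50 came from a four-parameter logistic fit.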

For `CCC[C@@H](N[C@@H](C)C(=O)N1[C@@H](C(=O)O)C[C@@H]2CCCC[C@@H]21)C(=O)OCC` [Perindopril], the “IC50 of cell viability” value is above 46 µM.
The result for `CN1CCN(C2=Nc3ccccc3Cc3ccccc32)CC1` [Perlapine] reads above 46 µM.
`OCCN1CCN(CCCN2c3ccccc3Sc3ccc(Cl)cc32)CC1` [Perphenazine]: the “IC50 of cell viability” value was above 46 µM.
The value for `CN1CCN(C(=O)C2CCCCC2)CC1` [Pexantel] was above 46 µM; that for `C=C(Nc1ccc(OCC)cc1)Nc1ccc(OCC)cc1` [Phenacaine hydrochloride] was above 46 µM; that for `CCOc1ccc(/N=C(\C)Nc2ccc(OCC)cc2)cc1` [Phenacaine hydrochloride] was above 46 µM.
On to `CCOc1ccc(NC(C)=O)cc1` [Phenacetin], for which the “IC50 of cell viability” value was above 46 µM.
The value for `CN1N(C(=O)/C=C1/C)C2=CC=CC=C2` [Phenazone] was above 46 µM; that for `[K+].C[C@H](OC1=CC=CC=C1)C(=O)N[C@H]2[C@@H]3SC(C)(C)[C@@H]([N@@]3C2=O)C([O-])=O` [Phenethicillin potassium salt] was above 46 µM; that for `N=C(N)NC(=N)NCCc1ccccc1.[Cl-].[H+]` [Phenformin HCl] was above 46 µM.
The value for `N=C(N)NC(=N)NCCc1ccccc1` [Phenformin hydrochloride] was above 46 µM; that for `O=C1c2ccccc2C(=O)C1c1ccccc1` [Phenindione] was above 46 µM.
The result for `C[NH+](C)CCC(c1ccccc1)c1cccc[nH+]1.O=C([O-])CC(=O)[O-]` (configuration not stated) [Pheniramine maleate] reads above 46 µM; that for `CC1NCCOC1c1ccccc1` (configuration not stated) [Phenmetrazine Hydrochloride], above 46 µM; that for `Oc1ccccc1` [Phenol], above 46 µM.
For the compound `O=C1OC(c2ccc(O)cc2)(c2ccc(O)cc2)c2ccccc21` [Phenolphthalein], the “IC50 of cell viability” value was above 46 µM.
The result for `c1ccc2c(c1)Nc1ccccc1S2` [Phenothiazine] reads above 46 µM; that for `O=C(O)COc1ccccc1` [Phenoxy acetic acid], above 46 µM; that for `CC(COc1ccccc1)N[NH3+]` (configuration not stated) [Phenoxypropazine], above 46 µM.
For the compound `NC(=O)OCCCc1ccccc1` [Phenprobamate], the “IC50 of cell viability” value is above 46 µM.
The result for `CN1C(=O)C[C@H](c2ccccc2)C1=O` [Phensuximide] reads above 46 µM; that for `CN(C)CCOc1ccccc1Cc1ccccc1.Nc1ccc(C(=O)O)c(O)c1` [Phentoloxamine and PAS], above 46 µM.
The value for `O=C(CCCCCCCCC#CI)Oc1ccccc1` [Phenyl 11-iodo-10-undecynoate] was above 46 µM.
The result for `O=C(Oc1ccccc1)c1ccccc1O` [Phenyl salicylate] reads above 46 µM; that for `CCCCC1C(=O)N(c2ccccc2)N(c2ccccc2)C1=O` [Phenylbutazone], above 46 µM; that for `C[C@H](N)[C@@H](O)c1ccccc1` [Phenylpropanolamine hydrochloride], above 46 µM.
As for `COP(=S)(OC)SCN1C(=O)c2ccccc2C1=O` [Phosmet], the “IC50 of cell viability” value was above 46 µM.
`O=C(O)CP(=O)(O)O` [Phosphonoacetic acid]: the “IC50 of cell viability” value is above 46 µM.
The value for `O=P(O)(O)OP(=O)(O)O` [Phosphotex] was above 46 µM; that for `CCOP(=S)(OCC)O/N=C(\C#N)c1ccccc1` [Phoxim] was above 46 µM; that for `CC1=C(C/C=C(\C)CCCC(C)CCCC(C)CCCC(C)C)C(=O)c2ccccc2C1=O` (configuration not stated) [Phytonadione] was above 46 µM.
The result for `NNc1nnc(Cc2ccncc2)c2ccccc12` [Picodralazine] reads above 46 µM; that for `NCc1cccnc1` [Picolamina], above 46 µM.
Consider `OCc1ccccn1` [Piconol], for which the “IC50 of cell viability” value is above 46 µM.
Consider `O=S(=O)([O-])Oc1ccc(C(c2ccc(OS(=O)(=O)[O-])cc2)c2ccccn2)cc1` [Picosulfate sodium], for which the “IC50 of cell viability” value is above 46 µM.
`C=C(C)[C@@H]1C2OC(=O)C1[C@]1(O)C[C@H]3O[C@]34C(=O)O[C@H]2[C@]14C.CC(C)(O)[C@@H]1C2OC(=O)[C@@H]1[C@]1(O)C[C@H]3O[C@]34C(=O)O[C@H]2[C@]14C` [Picrotoxin]: the “IC50 of cell viability” value is above 46 µM.
With `O=C1CC[C@@H](C(=O)N2CSC[C@H]2C(=O)O)N1` [Pidotimod], the “IC50 of cell viability” value is above 46 µM.
The result for `C/C(=N\O)c1ccc(OCC(=O)N2CCCCC2)cc1` [Pifoxime] reads above 46 µM.
The value for `O=C1CCCCC1CN1CCCCC1` (configuration not stated) [Pimeclone] was above 46 µM; that for `CC(=O)O[C@H]1C[C@@H]2CC[C@@H]3[C@H](CC[C@]4(C)[C@H](OC(C)=O)[C@@H](N5CC[N+](C)(C)CC5)C[C@@H]34)[C@@]2(C)C[C@@H]1N1CC[N+](C)(C)CC1` [Pipecuronium] was above 46 µM.
The value for `CCN1\C=C(\C(O)=O)C(=O)C2=C1N=C(N=C2)N3CCNCC3` [Pipemidic acid] was above 46 µM; that for `[Na+].CCN1CCN(C(=O)N[C@H](C(=O)N[C@H]2[C@@H]3SC(C)(C)[C@@H]([N@]3C2=O)C([O-])=O)C4=CC=CC=C4)C(=O)C1=O` [Piperacillin sodium salt] was above 46 µM.
Turning to `C1CNCCN1` [Piperazine], the “IC50 of cell viability” value was above 46 µM.
For `CCN1CCC[C@H](OC(=O)C(c2ccccc2)c2ccccc2)C1` [Piperidolate hydrochloride], the “IC50 of cell viability” value is above 46 µM.
The result for `CCCCOCCOCCOCc1cc2c(cc1CCC)OCO2` [Piperonyl butoxide] reads above 46 µM.
`CN1CCN(c2cc3c(nn2)Oc2ccccc2N3C)CC1` [Pipofezine]: the “IC50 of cell viability” value is above 46 µM.
The value for `CCCCCCCCCCCCCCCC(=O)OCCC1CCN(CCCN2c3ccccc3Sc3ccc([S+](=O)([O-])N(C)C)cc32)CC1` [Pipothiazine palmitate] was above 46 µM; that for `NC(=O)CN1CCCC1=O` [Piracetam] was above 46 µM.
The value for `N[S+](=O)([O-])c1cc(C(=O)O)cc(N2CCCC2)c1Oc1ccccc1` [Piretanide] was above 46 µM; that for `CC/1=C/N(C(=O)/C=C1)C2=CC=CC=C2` [Pirfenidone] was above 46 µM.
The value for `CCN1\C=C(\C(O)=O)C(=O)C2=C1N=C(N=C2)N3CCCC3` [Piromidic acid] was above 46 µM.
As to `CN1\C(=C(\O)C2=C(C=CC=C2)[S+]1([O-])=O)C(=O)NC3=CC=CC=N3` [Piroxicam], the “IC50 of cell viability” value was above 46 µM.
`O=C(O)CC(O)CC(O)/C=C/c1c(C2CC2)nc2ccccc2c1-c1ccc(F)cc1` (configuration not stated) [Pitavastatin]: the “IC50 of cell viability” value was above 46 µM.
The result for `COC(=O)c1ccccc1C(=O)c1ccc(OCCN2CCCCC2)cc1` [Pitofenona] reads above 46 µM.
`CC(C)(C)C(=O)NCCCC(=O)O` [Pivagabine]: the “IC50 of cell viability” value was above 46 µM.
Turning to `CC(C)(C)C(=O)OCOC(=O)[C@@H]1[N@]2[C@@H](SC1(C)C)[C@H](NC(=O)[C@@H](N)C3=CC=CC=C3)C2=O` [Pivampicillin], the “IC50 of cell viability” value was above 46 µM.
The result for `CC(C)(C)C(=O)OCOC(=O)[C@@H]1[N@]2[C@@H](SC1(C)C)[C@H](\N=C/N3CCCCCC3)C2=O` [Pivmecillinam hydrochloride] reads above 46 µM.
For the compound `CC(C)(C)C(=O)OCOC(=O)C1N2C(=O)CC2[S+](=O)([O-])C1(C)C` (configuration not stated) [Pivoxil Sulbactam], the “IC50 of cell viability” value was above 46 µM.
The value for `C=C[C@]1(C)C[C@@H](OC(=O)CO)[C@]2(C)C(C)CC[C@]3(CCC(=O)[C@H]32)[C@@H](C)[C@@H]1O` (some centres not stated) [Pleuromutilin] was above 46 µM; that for `NCCCC(N)C(=O)O` [Poly-L-ornithine hydrochloride] was above 46 µM.
The value for `CCC(C)CCCCC(=O)N[C@@H](CC[NH3+])C(=O)N[C@H](C(=O)N[C@@H](CC[NH3+])C(=O)N[C@H]1CCNC(=O)C([C@@H](C)O)NC(=O)[C@@H](CCN)NC(=O)[C@H](CCN)NC(=O)[C@H](CC(C)C)NC(=O)[C@@H](CC(C)C)NC(=O)[C@H](CCN)NC1=O)[C@@H](C)O` (some centres not stated) [Polymyxin E1] was above 46 µM; that for `CN1C(CSCC(F)(F)F)Nc2cc(Cl)c([S+](N)(=O)[O-])cc2[S+]1(=O)[O-]` (configuration not stated) [Polythiazide] was above 46 µM.
The result for `CC[C@@H]([C@H](C)O)N1\N=C/N(C1=O)C2=CC=C(C=C2)N3CCN(CC3)C4=CC=C(OCC5CO[C@@](C5)(C[N]6C=NC=N6)C7=C(F)C=C(F)C=C7)C=C4` (some centres not stated) [Posaconazole] reads above 46 µM.
As for `O=S(=O)([O-])C(F)(F)C(F)(F)C(F)(F)C(F)(F)F` [Potassium nonafluoro-1-butanesulfonate], the “IC50 of cell viability” value is above 46 µM.
Take `C#CC[C@H](Cc1cnc2nc(N)nc(N)c2n1)c1ccc(C(=O)NC(CCC(=O)O)C(=O)O)cc1` (some centres not stated) [Pralatrexate]: the “IC50 of cell viability” value is above 46 µM.
The value for `C[n+]1ccccc1/C=N\O` [Pralidoxime chloride] was above 46 µM; that for `CCCCOc1ccc(OCCCN2CCOCC2)cc1` [Pramoxine hydrochloride] was above 46 µM.
